{"source": "patent US7528253B2", "about": "“Compounds having β2 adrenergic receptor agonist and muscarinic receptor antagonist activity” (Theravance, Inc., priority 2004, dated 2009)", "key": {"[1]": {"target": "T1, M3 muscarinic receptor (hM3) (Homo sapiens, UniProt P20309)", "T1 construct": "expressed in transfected cells; membranes prepared", "T1 sequence (P20309 whole entry)": "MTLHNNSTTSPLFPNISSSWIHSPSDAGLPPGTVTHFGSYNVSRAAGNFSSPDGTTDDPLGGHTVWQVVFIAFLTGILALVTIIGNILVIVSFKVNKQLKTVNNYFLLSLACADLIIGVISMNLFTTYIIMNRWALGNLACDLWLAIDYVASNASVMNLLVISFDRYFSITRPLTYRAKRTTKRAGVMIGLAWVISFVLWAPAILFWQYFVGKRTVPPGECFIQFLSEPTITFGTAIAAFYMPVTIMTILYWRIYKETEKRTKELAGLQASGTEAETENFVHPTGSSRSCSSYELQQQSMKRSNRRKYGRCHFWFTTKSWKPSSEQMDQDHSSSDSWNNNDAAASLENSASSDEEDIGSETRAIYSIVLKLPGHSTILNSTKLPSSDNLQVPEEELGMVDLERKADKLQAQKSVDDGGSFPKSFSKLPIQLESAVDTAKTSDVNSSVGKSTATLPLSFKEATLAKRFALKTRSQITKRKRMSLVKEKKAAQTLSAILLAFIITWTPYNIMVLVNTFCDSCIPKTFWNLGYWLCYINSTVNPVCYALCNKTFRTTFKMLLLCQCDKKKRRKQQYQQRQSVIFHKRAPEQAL", "test": "Radioligand binding assay for muscarinic receptors (Assay Test Procedure B)", "conditions": "displacement of [3H]-NMS, CHO cell membranes", "experimental": "CHO cell lines stably expressing cloned human hM1, hM2, hM3 and hM4 muscarinic receptor subtypes, respectively, were grown to near confluency in HAM's F-12 media supplemented with 10% FBS and 250 μg/mL Geneticin. The cells were grown in a 5% CO2, 37° C. incubator and lifted with 2 mM EDTA in dPBS. Cells were collected by 5 minute centrifugation at 650× g, and cell pellets were either stored frozen at −80° C. or membranes were prepared immediately for use. For membrane preparation, cell pellets were resuspended in lysis buffer and homogenized with a Polytron PT-2100 tissue disrupter (Kinematica AG; 20 seconds×2 bursts). Crude membranes were centrifuged at 40,000× g for 15 minutes at 4° C. […] The protein concentration of the membrane suspension was determined by the method described in Lowry et al., 1951, Journal of Biochemistry, 193, 265. […]\nRadioligand binding assays for cloned human muscarinic receptors were performed in 96-well microtiter plates in a total assay volume of 100 μL. […] Filter plates were rinsed three times with wash buffer (10 mM HEPES) to remove unbound radioactivity. […] The plates were then counted in a PerkinElmer Topcount liquid scintillation counter (PerkinElmer Inc., Wellesley, Mass.). Binding data were analyzed by nonlinear regression analysis with the GraphPad Prism Software package (GraphPad Software, Inc., San Diego, Calif.) using the one-site competition model. […]"}, "[2]": {"target": "T2, human β2 adrenergic receptor (Homo sapiens, UniProt P07550)", "T2 construct": "expressed in transfected cells; membranes prepared", "T2 sequence (P07550 whole entry)": "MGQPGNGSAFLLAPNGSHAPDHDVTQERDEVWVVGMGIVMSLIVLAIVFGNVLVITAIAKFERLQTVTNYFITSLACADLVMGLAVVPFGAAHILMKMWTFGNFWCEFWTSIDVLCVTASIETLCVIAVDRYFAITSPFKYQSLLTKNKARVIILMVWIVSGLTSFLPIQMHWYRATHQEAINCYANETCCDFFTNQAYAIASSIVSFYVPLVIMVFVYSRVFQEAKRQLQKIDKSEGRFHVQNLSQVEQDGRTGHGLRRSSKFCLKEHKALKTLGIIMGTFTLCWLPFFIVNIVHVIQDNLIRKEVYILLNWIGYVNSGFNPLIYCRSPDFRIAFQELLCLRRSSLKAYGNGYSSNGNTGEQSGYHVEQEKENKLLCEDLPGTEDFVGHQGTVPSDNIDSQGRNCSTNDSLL", "test": "Radioligand binding assay for human β2 adrenergic receptor (Assay Test Procedure A)", "conditions": "displacement of [3H]-dihydroalprenolol, CHO membranes", "experimental": "Chinese hamster ovarian (CHO) cell lines stably expressing cloned human β1, β2 or β3 adrenergic receptors, respectively, were grown to near confluency in Hams F-12 media with 10% FBS in the presence of 500 μg/mL Geneticin. The cell monolayer was lifted with 2 mM EDTA in PBS. Cells were pelleted by centrifugation at 1,000 rpm, and cell pellets were either stored frozen at −80° C. or membranes were prepared immediately for use. For preparation of β1 and β2 receptor expressing membranes, cell pellets were re-suspended in lysis buffer (10 mM HEPES/HCl, 10 mM EDTA, pH 7.4 at 4° C.) and homogenized using a tight-fitting Dounce glass homogenizer (30 strokes) on ice. […] The protein concentration of the membrane suspension was determined by the methods described in Lowry et al., 1951, Journal of Biological Chemistry, 193, 265; and Bradford, Analytical Biochemistry, 1976, 72, 248-54. […]\nBinding assays were performed in 96-well microtiter plates in a total assay volume of 100 μL with 10-15 μg of membrane protein containing the human β1, β2 or β3 adrenergic receptors in assay buffer (75 mM Tris/HCl pH 7.4 at 25° C., 12.5 mM MgCl2, 1 mM EDTA, 0.2% BSA). […] Non-specific binding was determined in the presence of 10 μM propranolol. […] Filter plates were washed three times with filtration buffer (75 mM Tris/HCl pH 7.4 at 4° C., 12.5 mM MgCl2, 1 mM EDTA) to remove unbound radioactivity. […]"}}, "note": "pKi: −log10 of the molar value.", "data": [{"compound": "CN(CCCCCCCCCNC[C@H](O)c1ccc(O)c2[nH]c(=O)ccc12)CCC(C)(C)OC(=O)Nc1ccccc1-c1ccccc1", "note": "[Example 1, Biphenyl-2-ylcarbamic Acid 3-({9-[(R)-2-Hydroxy-2-(8-hydroxy-2-oxo-1,2-dihydro-quinolin-5-yl)ethylamino]nonyl}methylamino)-1,1-dimethylpropyl Ester]", "values": [{"measurement": "pKi", "setting": "[1]", "value": "> 6.52"}, {"measurement": "pKi", "setting": "[2]", "value": "> 6.52"}]}]}
